This is an account of results in patent US9802927B2, “Oxadiazine compounds and methods of use thereof” (Denali Therapeutics, Inc., priority 2015, dated 2017).

Broadly, the EC50 is the concentration giving half of the maximal effect.

This experiment relates to Aβ42. The experiment can be described thus: In vitro cell screening assay in H4 cells expressing human APP751: Aβ42 by sandwich ELISA. In kind it is cell-based. The conditions noted are these: compounds 0.003-10 μM, incubated overnight (16-18 h), sandwich ELISA of supernatant. In outline:
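H4 neuroglioma cells stably expressing wild-type human APP751, switched to Pro293 medium and treated with compounds (0.003-10 μM, 0.33% DMSO) for 16-18 h at 37 °C. Supernatant Aβ42 quantified by sandwich ELISA (C-terminal capture, 4G8-HRP detection, A450); EC50 by sigmoidal fit normalized to DMSO and DAPT controls.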
Consider `COc1nc(C2=NOCC(c3cn(C)c4ncc(C5CC5)cc34)N2)ccc1-n1cnc(C)c1` (single isomer, unassigned; (+)) [Example 266B, (+)-5-(5-cyclopropyl-1-methyl-1H-pyrrolo[2,3-b]pyridin-3-yl)-3-(6-methoxy-5-(4-methyl-1H-imidazol-1-yl)pyridin-2-yl)-5,6-dihydro-4H-1,2,4-oxadiazine], for which the response was half-maximal at 0.0155 µM (EC50).

Compound `COc1nc(C2=NOCC(c3cc(F)c(Cl)c(F)c3)N2)ccc1-n1cnc(C)c1` (single isomer, unassigned; (+)) [Example 267B, (+)-5-(4-chloro-3,5-difluorophenyl)-3-(6-methoxy-5-(4-methyl-1H-imidazol-1-yl)pyridin-2-yl)-5,6-dihydro-4H-1,2,4-oxadiazine] showed an EC50 of 0.0249 µM. Compared with the last compound, the EC50 is about 1.6-fold higher.

The compound `COc1nc(C2=NOCC(c3ccc(C(C)(C)O)cc3)N2)ccc1-n1cnc(C)c1` (single isomer, unassigned; (+)) [Example 268B, (+)-2-(4-(3-(6-methoxy-5-(4-methyl-1H-imidazol-1-yl)pyridin-2-yl)-5,6-dihydro-4H-1,2,4-oxadiazin-5-yl)phenyl)propan-2-ol] registered an EC50 of 0.27 µM.

Compound `COc1nc(C2=NOCC(c3cnc4ccc(Cl)cn34)N2)ccc1-n1cnc(C)c1` (single isomer, unassigned; (+)) [Example 269B, (+)-5-(6-chloroimidazo[1,2-a]pyridin-3-yl)-3-(6-methoxy-5-(4-methyl-1H-imidazol-1-yl)pyridin-2-yl)-5,6-dihydro-4H-1,2,4-oxadiazine] gave an EC50 of 0.24 µM.

`COc1nc(C2=NOCC(c3ccc(Cl)c(C(F)F)c3)N2)ccc1-n1cnc(C)c1` (single isomer, unassigned; (+)) [Example 270B, (+)-5-(4-chloro-3-(difluoromethyl)phenyl)-3-(6-methoxy-5-(4-methyl-1H-imidazol-1-yl)pyridin-2-yl)-5,6-dihydro-4H-1,2,4-oxadiazine] registered an EC50 of 0.0214 µM. This EC50 is about 11-fold lower than that of the compound before.

The compound `COc1nc(C2=NOCC(c3oc4ccccc4c3C)N2)ccc1-n1cnc(C)c1` (single isomer, unassigned; (-)) [Example 16A, (−)-3-(6-methoxy-5-(4-methyl-1H-imidazol-1-yl)pyridin-2-yl)-5-(3-methylbenzofuran-2-yl)-5,6-dihydro-4H-1,2,4-oxadiazine] had an EC50 of 0.508 µM.

With `COc1nc(C2=NOCC(c3cc4ccccc4o3)N2)ccc1-n1cnc(C)n1` (single isomer, unassigned; (-)) [Example 31A, (−)-5-(Benzofuran-2-yl)-3-(6-methoxy-5-(3-methyl-1H-1,2,4-triazol-1-yl)pyridin-2-yl)-5,6-dihydro-4H-1,2,4-oxadiazine], the EC50 was greater than 3 µM.

`COc1nc(C2=NOCC(c3ccc(Cl)c(Cl)c3)N2)ccc1-n1cnc(C)c1` (single isomer, unassigned; (-)) [Example 49A, (−)-5-(3,4-dichlorophenyl)-3-(6-methoxy-5-(4-methyl-1H-imidazol-1-yl)pyridin-2-yl)-5,6-dihydro-4H-1,2,4-oxadiazine]: the EC50 was greater than 3 µM.

`COc1nc(C2=NOCC(c3cc4ccc(F)cc4o3)N2)ccc1-n1cnc(C)c1` (single isomer, unassigned; (-)) [Example 52A, (−)-5-(6-fluorobenzofuran-2-yl)-3-(6-methoxy-5-(4-methyl-1H-imidazol-1-yl)pyridin-2-yl)-5,6-dihydro-4H-1,2,4-oxadiazine] returned an EC50 of 0.667 µM.

Compound `COc1ccc(C2CON=C(c3ccc(-n4cnc(C)c4)c(OC)n3)N2)cc1` (single isomer, unassigned; (-)) [Example 54A, (−)-3-(6-methoxy-5-(4-methyl-1H-imidazol-1-yl)pyridin-2-yl)-5-(4-methoxyphenyl)-5,6-dihydro-4H-1,2,4-oxadiazine] returned an EC50 greater than 3 µM.

With `COc1nc(C2=NOCC(c3cc4cc(Cl)ccc4o3)N2)ccc1-n1cnc(C)c1` (single isomer, unassigned; (-)) [Example 57A, (−)-5-(5-chlorobenzofuran-2-yl)-3-(6-methoxy-5-(4-methyl-1H-imidazol-1-yl)pyridin-2-yl)-5,6-dihydro-4H-1,2,4-oxadiazine], it took 2.28 µM to reach a half-maximal effect (EC50). This counts as single-digit micromolar.

Turning to `COc1nc(C2=NOCC(c3ccc(C(F)(F)F)cc3)N2)ccc1-n1cnc(C)c1` (single isomer, unassigned; (-)) [Example 59A, (−)-3-(6-methoxy-5-(4-methyl-1H-imidazol-1-yl)pyridin-2-yl)-5-(4-(trifluoromethyl)phenyl)-5,6-dihydro-4H-1,2,4-oxadiazine], the EC50 is greater than 3 µM.

In turn, `COc1nc(C2=NOCC(C3CCCCC3)N2)ccc1-n1cnc(C)c1` (single isomer, unassigned; (-)) [Example 61A, (−)-5-cyclohexyl-3-(6-methoxy-5-(4-methyl-1H-imidazol-1-yl)pyridin-2-yl)-5,6-dihydro-4H-1,2,4-oxadiazine] had an EC50 of 0.775 µM.

Compound `COc1nc(C2=NOCC(c3cc4cccc(Cl)c4o3)N2)ccc1-n1cnc(C)c1` (single isomer, unassigned; (-)) [Example 64A, (−)-5-(7-chlorobenzofuran-2-yl)-3-(6-methoxy-5-(4-methyl-1H-imidazol-1-yl)pyridin-2-yl)-5,6-dihydro-4H-1,2,4-oxadiazine] registered a concentration for a half-maximal effect (EC50) of 0.759 µM.

Regarding `COc1nc(C2=NOCC(c3sc4ccccc4c3C)N2)ccc1-n1cnc(C)c1` (single isomer, unassigned; (-)) [Example 66A, (−)-3-(6-methoxy-5-(4-methyl-1H-imidazol-1-yl)pyridin-2-yl)-5-(3-methylbenzo [b]thiophen-2-yl)-5,6-dihydro-4H-1,2,4-oxadiazine], a half-maximal response (EC50) required 0.651 µM.

Turning to `COc1nc(C2=NOCC(c3csc4ccccc34)N2)ccc1-n1cnc(C)c1` (single isomer, unassigned; (-)) [Example 68A, (−)-5-(benzo [b]thiophen-3-yl)-3-(6-methoxy-5-(4-methyl-1H-imidazol-1-yl)pyridin-2-yl)-5,6-dihydro-4H-1,2,4-oxadiazine], the response was half-maximal at 1.09 µM (EC50).

On to `COc1nc(C2=NOCC(c3ccc(OC(F)(F)F)cc3)N2)ccc1-n1cnc(C)c1` (single isomer, unassigned; (-)) [Example 70A, (−)-3-(6-methoxy-5-(4-methyl-1H-imidazol-1-yl)pyridin-2-yl)-5-(4-(trifluoromethoxy)phenyl)-5,6-dihydro-4H-1,2,4-oxadiazine], for which the EC50 is greater than 3 µM.

As for `CCn1cc(C2CON=C(c3ccc(-n4cnc(C)c4)c(OC)n3)N2)c2cc(Cl)c(F)cc21` (single isomer, unassigned; (-)) [Example 73A, (−)-5-(5-chloro-1-ethyl-6-fluoro-1H-indol-3-yl)-3-(6-methoxy-5-(4-methyl-1H-imidazol-1-yl)pyridin-2-yl)-5,6-dihydro-4H-1,2,4-oxadiazine], the EC50 is 0.0549 µM. In other words, the double-digit nanomolar range.

In turn, `COc1nc(C2=NOCC(c3ccc(F)c(F)c3)N2)ccc1-n1cnc(C)c1` (single isomer, unassigned; (-)) [Example 75A, (−)-5-(3,4-difluorophenyl)-3-(6-methoxy-5-(4-methyl-1H-imidazol-1-yl)pyridin-2-yl)-5,6-dihydro-4H-1,2,4-oxadiazine] gave an EC50 greater than 3 µM.

Compound `COc1nc(C2=NOCC(c3cc4ccc(Cl)cc4o3)N2)ccc1-n1cnc(C)c1` (single isomer, unassigned; (-)) [Example 78A, (−)-5-(6-chlorobenzofuran-2-yl)-3-(6-methoxy-5-(4-methyl-1H-imidazol-1-yl)pyridin-2-yl)-5,6-dihydro-4H-1,2,4-oxadiazine] yielded an EC50 of 1.28 µM.

The compound `COc1nc(C2=NOCC(c3cc(F)cc(F)c3)N2)ccc1-n1cnc(C)c1` (single isomer, unassigned; (-)) [Example 81A, (−)-5-(3,5-difluorophenyl)-3-(6-methoxy-5-(4-methyl-1H-imidazol-1-yl)pyridin-2-yl)-5,6-dihydro-4H-1,2,4-oxadiazine] displayed an EC50 greater than 3 µM.

`COc1nc(C2=NOCC(c3cc4cc(F)ccc4o3)N2)ccc1-n1cnc(C)c1` (single isomer, unassigned; (-)) [Example 84A, (−)-5-(5-fluorobenzofuran-2-yl)-3-(6-methoxy-5-(4-methyl-1H-imidazol-1-yl)pyridin-2-yl)-5,6-dihydro-4H-1,2,4-oxadiazine] registered an EC50 of 0.944 µM.

Compound `COc1nc(C2=NOCC(c3ccc(Cl)c(C)c3)N2)ccc1-n1cnc(C)c1` (single isomer, unassigned; (-)) [Example 86A, (−)-5-(4-chloro-3-methylphenyl)-3-(6-methoxy-5-(4-methyl-1H-imidazol-1-yl)pyridin-2-yl)-5,6-dihydro-4H-1,2,4-oxadiazine] had an EC50 of 1.55 µM.

`COc1nc(C2=NOCC(c3cc4cccc(F)c4o3)N2)ccc1-n1cnc(C)c1` (single isomer, unassigned; (-)) [Example 89A, (−)-5-(7-fluorobenzofuran-2-yl)-3-(6-methoxy-5-(4-methyl-1H-imidazol-1-yl)pyridin-2-yl)-5,6-dihydro-4H-1,2,4-oxadiazine]: the EC50 was 2.34 µM.

The compound `COc1nc(C2=NOCC(c3cc(F)c(F)c(F)c3)N2)ccc1-n1cnc(C)c1` (single isomer, unassigned; (-)) [Example 91A, (−)-3-(6-methoxy-5-(4-methyl-1H-imidazol-1-yl)pyridin-2-yl)-5-(3,4,5-trifluorophenyl)-5,6-dihydro-4H-1,2,4-oxadiazine] registered an EC50 greater than 3 µM.

The compound `COc1nc(C2=NOCC(c3ccc(OC(F)F)cc3)N2)ccc1-n1cnc(C)c1` (single isomer, unassigned; (-)) [Example 93A, (−)-5-(4-(difluoromethoxy)phenyl)-3-(6-methoxy-5-(4-methyl-1H-imidazol-1-yl)pyridin-2-yl)-5,6-dihydro-4H-1,2,4-oxadiazine] showed an EC50 greater than 3 µM.

In turn, `COc1nc(C2=NOCC(c3cc4c(Cl)cccc4o3)N2)ccc1-n1cnc(C)c1` (single isomer, unassigned; (-)) [Example 96A, (−)-5-(4-chlorobenzofuran-2-yl)-3-(6-methoxy-5-(4-methyl-1H-imidazol-1-yl)pyridin-2-yl)-5,6-dihydro-4H-1,2,4-oxadiazine] came in with an EC50 of 1.01 µM.
